Experimental data taken from patent US10072003B2, “Tetrahydronaphthyridine derivatives as mGluR2-negative allosteric modulators, compositions, and their use” (Merck Sharp & Dohme Corp., priority 2014, dated 2018).

What follows are compounds tested against recombinant human mGluR2 (Homo sapiens (Human), UniProt Q14416) (assay: FLIPR Ca2+ mobilization antagonist assay in CHO dhfr- cells expressing human mGluR2 and Gα16). Conditions: antagonist response after addition of 2,500 nM glutamate, Fluo-4 AM, FLIPR384.
Sequence of recombinant human mGluR2 (Q14416 19-872): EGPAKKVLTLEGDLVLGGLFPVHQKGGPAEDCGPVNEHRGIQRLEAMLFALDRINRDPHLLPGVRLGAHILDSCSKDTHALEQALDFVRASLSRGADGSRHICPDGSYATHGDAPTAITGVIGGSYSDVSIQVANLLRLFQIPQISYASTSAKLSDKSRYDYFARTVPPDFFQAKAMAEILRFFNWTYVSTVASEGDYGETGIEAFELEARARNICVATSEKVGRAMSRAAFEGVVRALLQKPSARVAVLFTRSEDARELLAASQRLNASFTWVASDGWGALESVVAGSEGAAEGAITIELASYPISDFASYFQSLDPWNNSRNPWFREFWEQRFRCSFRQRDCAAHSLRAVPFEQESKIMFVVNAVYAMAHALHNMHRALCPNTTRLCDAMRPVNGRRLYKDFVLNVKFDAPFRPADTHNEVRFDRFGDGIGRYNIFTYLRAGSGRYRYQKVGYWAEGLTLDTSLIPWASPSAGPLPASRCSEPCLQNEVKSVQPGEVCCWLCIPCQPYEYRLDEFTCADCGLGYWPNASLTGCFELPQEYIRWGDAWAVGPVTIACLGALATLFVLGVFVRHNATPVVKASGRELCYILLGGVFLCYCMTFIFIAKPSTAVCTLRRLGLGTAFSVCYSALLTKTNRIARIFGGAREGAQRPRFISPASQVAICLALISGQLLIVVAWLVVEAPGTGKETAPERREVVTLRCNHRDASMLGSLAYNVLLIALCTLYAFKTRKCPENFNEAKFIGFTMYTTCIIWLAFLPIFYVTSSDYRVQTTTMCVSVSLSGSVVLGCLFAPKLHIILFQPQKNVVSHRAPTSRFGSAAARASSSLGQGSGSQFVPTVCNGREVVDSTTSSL
Assay type: cell-based
Procedure: Antagonist constants are determined as follows. The compounds of the invention were tested in a fluorescence laser imaging plate reader based assay. This assay is a common functional assay to monitor Ca2+ mobilization in whole cells expressing recombinant receptor coupled with a promiscuous G-protein. CHO dhfr-cells stably expressing recombinant human mGluR2 and Gα16 loaded with Fluo-4 AM (Invitrogen, Carlsbad Calif.) were treated with various concentrations of antagonists of compounds and the Ca2+ response was monitored on a FLIPR384 (Molecular Devices, Sunnydale Calif.) for agonist activity. Then 2,500 nM glutamate was added and the antagonist response was monitored. The maximum calcium response at each concentration of compound for agonist or antagonist were plotted as dose responses and the curves were fitted with a four parameter logistic equation giving IC50 and Hill coefficient using the iterative non linear curve fitting software ADA (Merck & Co). Data in the following table represent activities in the antagonist assay.
Work on `NC(=O)c1cc(-c2ccc(F)cc2)c2c(n1)CN(Cc1cc(C(F)(F)F)ncn1)CC2` [Example 11-10, 4-(4-fluorophenyl)-7-{[6-(trifluoromethyl)pyrimidin-4-yl]methyl}-5,6,7,8-tetrahydro-1,7-naphthyridine-2-carboxamide] yielded an IC50 of 7.6 nM. `NC(=O)c1cc(C2=CCC3(CC2)CC3)c2c(n1)CN(Cc1ccnc(C(F)(F)F)c1)CC2` [Example 4-2, 4-spiro[2.5]oct-5-en-6-yl-7-{[2-(trifluoromethyl)pyridin-4-yl]methyl}-5,6,7,8-tetrahydro-1,7-naphthyridine-2-carboxamide] gave an IC50 of 49.7 nM. `CC(c1cnnn1C)N1CCc2c(-c3ccc(F)cc3F)cc(C(N)=O)nc2C1` (single isomer, unassigned) [Example 7-2, (R) or (S)-4-(2,4-difluorophenyl)-7-[(1R)-1-(1-methyl-1H-1,2,3-triazol-5-yl)ethyl]-5,6,7,8-tetrahydro-1,7-naphthyridine-2-carboxamide] gave an IC50 of 45.9 nM. Compound `CC1c2nc(C(N)=O)cc(-c3ccc(F)cc3F)c2CCN1CC1CCOC(C)(C)C1` (single isomer, unassigned) [Example 1-18] has an IC50 of 12.3 nM. With `COc1nccc(CN2CCc3c(-c4ccc(Cl)cc4F)cc(C(N)=O)nc3C2)n1` [Example 9-3, 4-(4-chloro-2-fluorophenyl)-7-[(2-methoxypyrimidin-4-yl)methyl]-5,6,7,8-tetrahydro-1,7-naphthyridine-2-carboxamide] the IC50 was 14.2 nM. In the case of `NC(=O)c1cc(-c2ccc(Cl)cc2F)c2c(n1)CN(Cc1ccnc(C(F)(F)F)n1)CC2` [Example 11-3, 4-(4-chloro-2-fluorophenyl)-7-{[2-(trifluoromethyl)pyrimidin-4-yl]methyl}-5,6,7,8-tetrahydro-1,7-naphthyridine-2-carboxamide], the IC50 is reported as 7.2 nM. `NC(=O)c1cc(-c2ccc(Cl)cc2F)c2c(n1)CN(Cc1cc(C(F)(F)F)ncn1)CC2` [Example 11-12, 4-(4-chloro-2-fluorophenyl)-7-{[6-(trifluoromethyl)pyrimidin-4-yl]methyl}-5,6,7,8-tetrahydro-1,7-naphthyridine-2-carboxamide] gave an IC50 of 10 nM. `CC1(C)CC(CN2CCc3c(-c4ccc(F)cc4F)cc(C(N)=O)nc3C2)CCO1` (single isomer, unassigned) [Example 1-11A, (R) or (S)-4-(2,4-difluorophenyl)-7-[(2,2-dimethyltetrahydro-2H-pyran-4-yl)methyl]-5,6,7,8-tetrahydro-1,7-naphthyridine-2-carboxamide] gave an IC50 of 30.1 nM. Work on `C[C@@H]1CN(c2cc(C(N)=O)nc3c2CCN(Cc2ccnc(C(F)(F)F)c2)C3)CCO1` [Example 5-2, (R)-4-(2-methylmorpholino)-7-((2-(trifluoromethyl)pyridin-4-yl)methyl)-5,6,7,8-tetrahydro-1,7-naphthyridine-2-carboxamide] yielded an IC50 of 79.1 nM. Compound `CC(c1ccnc(C(F)(F)F)c1)N1CCc2c(-c3cnn(C(F)F)c3)cc(C(N)=O)nc2C1` (single isomer, unassigned) [Example 7-3B, (R) or (S)-4-[1-(difluoromethyl)-1H-pyrazol-4-yl]-7-{(1S)-1-[2-(trifluoromethyl)pyridin-4-yl]ethyl}-5,6,7,8-tetrahydro-1,7-naphthyridine-2-carboxamide] has an IC50 of 21.2 nM. In the case of `NC(=O)c1cc(-c2cc(F)ccc2F)c2c(n1)CN(Cc1ccnc(C(F)(F)F)n1)CC2` [Example 11-2, 4-(2,5-difluorophenyl)-7-{[2-(trifluoromethyl)pyrimidin-4-yl]methyl}-5,6,7,8-tetrahydro-1,7-naphthyridine-2-carboxamide], the IC50 is reported as 52.1 nM. For `CC(C)(C)n1nncc1CN1CCc2c(-c3c(F)cc(Cl)cc3F)cc(C(N)=O)nc2C1` [Example 1-17, 7-[(1-tert-butyl-1H-1,2,3-triazol-5-yl)methyl]-4-(4-chloro-2,6-difluorophenyl)-5,6,7,8-tetrahydro-1,7-naphthyridine-2-carboxamide], the IC50 was 7.4 nM. With `Cc1noc(CN2CCc3c(-c4ccc(Cl)cc4F)cc(C(N)=O)nc3C2)n1` [Example 9-5, 4-(4-chloro-2-fluorophenyl)-7-[(3-methyl-1,2,4-oxadiazol-5-yl)methyl]-5,6,7,8-tetrahydro-1,7-naphthyridine-2-carboxamide] the IC50 was 12.7 nM. In the case of `NC(=O)c1cc(N2CCC(F)(F)CC2)c2c(n1)CN(Cc1ccnc(C(F)(F)F)n1)CC2` [Example 12-1, 4-(4,4-difluoropiperidin-1-yl)-7-((2-(trifluoromethyl)pyrimidin-4-yl)methyl)-5,6,7,8-tetrahydro-1,7-naphthyridine-2-carboxamide], the IC50 is reported as 40.9 nM. With `Cn1ncnc1CN1CCc2c(-c3ccc(Cl)cc3F)cc(C(N)=O)nc2C1` [Example 9-4, 4-(4-chloro-2-fluorophenyl)-7-[(1-methyl-1H-1,2,4-triazol-5-yl)methyl]-5,6,7,8-tetrahydro-1,7-naphthyridine-2-carboxamide] the IC50 was 23.9 nM. For `NC(=O)c1cc(-c2ccc(F)cc2)c2c(n1)CN(C(c1cccnc1)C(F)(F)F)CC2` (racemic) [Example 3-1A, (S) and (R)-4-(4-fluorophenyl)-7-(2,2,2-trifluoro-1-(pyridin-3-yl)ethyl)-5,6,7,8-tetrahydro-1,7-naphthyridine-2-carboxamide], the IC50 was 21.2 nM. In the case of `NC(=O)c1cc(-c2ccc(F)cc2Cl)c2c(n1)CN(Cc1ccnc(OC(F)F)c1)CC2` [Example 2-11, 4-(2-chloro-4-fluorophenyl)-7-{[2-(difluoromethoxy)pyridin-4-yl]methyl}-5,6,7,8-tetrahydro-1,7-naphthyridine-2-carboxamide], the IC50 is reported as 10.4 nM. `NC(=O)c1cccc(CN2CCc3c(-c4ccc(F)cc4)cc(C(N)=O)nc3C2)c1` [Example 2-1, 7-(3-carbamoylbenzyl)-4-(4-fluorophenyl)-5,6,7,8-tetrahydro-1,7-naphthyridine-2-carboxamide] showed an IC50 of 52.7 nM. `NC(=O)c1cc(-c2ccc(F)cc2)c2c(n1)CN(C[C@@H]1CCN[C@H](C(F)(F)F)C1)CC2` [Example 1-1B, 4-(4-fluorophenyl)-7-(((2S,4R)-2-(trifluoromethyl)piperidin-4-yl)methyl)-5,6,7,8-tetrahydro-1,7-naphthyridine-2-carboxamide] was tested, and the IC50 was 98.2 nM. `COc1cc(C(N2CCc3c(-c4cnn(C)c4)cc(C(N)=O)nc3C2)C(F)(F)F)ccn1` (racemic) [Example 3-2A, (S) and (R)-4-(1-methyl-1H-pyrazol-4-yl)-7-(2,2,2-trifluoro-1-(2-methoxypyridin-4-yl)ethyl)-5,6,7,8-tetrahydro-1,7-naphthyridine-2-carboxamide] gave an IC50 of 9.6 nM. With `NC(=O)c1cc(-c2ccccc2Cl)c2c(n1)CN(Cc1ccnc(C(F)(F)F)n1)CC2` [Example 11-4, 4-(2-chlorophenyl)-7-{[2-(trifluoromethyl)pyrimidin-4-yl]methyl}-5,6,7,8-tetrahydro-1,7-naphthyridine-2-carboxamide] the IC50 was 19.7 nM. Work on `NC(=O)c1cc(-c2ccc(F)cc2)c2c(n1)CN(C(c1cccnc1)C(F)(F)F)CC2` (racemic) [Example 3-1B, (S) and (R)-4-(4-fluorophenyl)-7-(2,2,2-trifluoro-1-(pyridin-3-yl)ethyl)-5,6,7,8-tetrahydro-1,7-naphthyridine-2-carboxamide] yielded an IC50 of 22.3 nM. `COc1cc(C(N2CCc3c(C4=CCC(C)CC4)cc(C(N)=O)nc3C2)C(F)(F)F)ccn1` (racemic) [Example 4-3A, 4-((S) and (R)-4-methylcyclohex-1-en-1-yl)-7-((S) and (R)-2,2,2-trifluoro-1-(2-methoxypyridin-4-yl)ethyl)-5,6,7,8-tetrahydro-1,7-naphthyridine-2-carboxamide] gave an IC50 of 51.2 nM. `NC(=O)c1cc(-c2ccc(F)cc2)c2c(n1)CN(C[C@H]1CCO[C@@H](C3CC3)C1)CC2` [Example 1-2B, 7-(((2R,4S)-2-cyclopropyltetrahydro-2H-pyran-4-yl)methyl)-4-(4-fluorophenyl)-5,6,7,8-tetrahydro-1,7-naphthyridine-2-carboxamide] was tested, and the IC50 was 129 nM. With `NC(=O)c1cc(-c2ccc(F)cc2)c2c(n1)CN(C[C@@H]1CCO[C@H](C3CC3)C1)CC2` [Example 1-2A, 7-(((2S,4R)-2-cyclopropyltetrahydro-2H-pyran-4-yl)methyl)-4-(4-fluorophenyl)-5,6,7,8-tetrahydro-1,7-naphthyridine-2-carboxamide] the IC50 was 129 nM. Work on `Cn1nccc1CN1CCc2c(-c3ccc(F)cc3F)cc(C(N)=O)nc2C1` [Example 1-6, 4-(2,4-difluorophenyl)-7-[(1-methyl-1H-pyrazol-5-yl)methyl]-5,6,7,8-tetrahydro-1,7-naphthyridine-2-carboxamide] yielded an IC50 of 14.5 nM. `CC1(C)CC(CN2CCc3c(-c4ccc(Cl)cc4F)cc(C(N)=O)nc3C2)CCO1` (single isomer, unassigned) [Example 1-5B, (S) or (R)-4-(4-chloro-2-fluorophenyl)-7-((2,2-dimethyltetrahydro-2H-pyran-4-yl)methyl)-5,6,7,8-tetrahydro-1,7-naphthyridine-2-carboxamide] was tested, and the IC50 was 7.5 nM. `NC(=O)c1cc(-c2c(F)cccc2Cl)c2c(n1)CN(Cc1ccnc(C(F)(F)F)n1)CC2` [Example 11-7, 4-(2-chloro-6-fluorophenyl)-7-{[2-(trifluoromethyl)pyrimidin-4-yl]methyl}-5,6,7,8-tetrahydro-1,7-naphthyridine-2-carboxamide] gave an IC50 of 45.2 nM. `NC(=O)c1cc(N2CCCC3(CC3)C2)c2c(n1)CN(Cc1ccnc(C(F)(F)F)c1)CC2` [Example 5-4, 4-(5-azaspiro[2.5]oct-5-yl)-7-{[2-(trifluoromethyl)pyridin-4-yl]methyl}-5,6,7,8-tetrahydro-1,7-naphthyridine-2-carboxamide] showed an IC50 of 29 nM.
